Assay results as given in the SangsterLogP compilation.

Assay: method code SF-AS, from DOI: 10.1002/ps.2780410210

| Compound | logP |
| --- | --- |
| Cc1ccc(C(=O)N(NC(=O)c2ccccc2)C(C)(C)C)c(C)c1 | 3.18 |
| CC(C)(C)N(NC(=O)c1ccccc1)C(=O)c1c(F)cccc1F | 2.16 |
| Cc1cccc(C(=O)N(NC(=O)c2ccccc2)C(C)(C)C)c1C | 3.1 |
| CC(C)(C)N(NC(=O)c1ccccc1)C(=O)c1cccc([N+](=O)[O-])c1 | 2.73 |
| CC(C)(C)N(NC(=O)c1ccccc1)C(=O)c1c(Cl)cccc1Cl | 2.56 |
| COc1cccc(C(=O)N(NC(=O)c2ccccc2)C(C)(C)C)c1 | 2.56 |
| Cc1c(Cl)cccc1C(=O)N(NC(=O)c1ccccc1)C(C)(C)C | 3.57 |
| Cc1cccc(C(=O)N(NC(=O)c2ccccc2)C(C)(C)C)c1 | 2.79 |
| CSc1ccccc1C(=O)N(NC(=O)c1ccccc1)C(C)(C)C | 2.6 |
| CC(C)(C)N(NC(=O)c1ccccc1)C(=O)c1cccc(Cl)c1Cl | 3.41 |
| CC(C)(C)N(NC(=O)c1ccccc1)C(=O)c1ccc(F)cc1 | 2.85 |
| CCc1ccccc1C(=O)N(NC(=O)c1ccccc1)C(C)(C)C | 2.96 |
| CC(C)(C)N(NC(=O)c1ccccc1)C(=O)c1cccc(Cl)c1 | 3.28 |
| CC(C)(C)N(NC(=O)c1ccccc1)C(=O)c1ccc(Br)cc1 | 3.66 |
| CC(C)(C)N(NC(=O)c1ccccc1)C(=O)c1ccc([N+](=O)[O-])cc1 | 2.63 |
| Cc1ccc(C(=O)N(NC(=O)c2ccccc2)C(C)(C)C)cc1 | 2.99 |
| CC(C)(C)N(NC(=O)c1ccccc1)C(=O)c1cc(F)c(F)c(F)c1F | 3.44 |
| CC(C)(C)N(NC(=O)c1ccccc1)C(=O)c1c(F)cccc1Cl | 2.34 |
| CC(C)(C)N(NC(=O)c1ccccc1)C(=O)c1ccc(C#N)cc1 | 2.5 |
| CC(C)(C)N(NC(=O)c1ccccc1)C(=O)c1c(F)c(F)c(F)c(F)c1F | 3.25 |
| CC(C)(C)N(NC(=O)c1ccccc1)C(=O)c1ccccc1[N+](=O)[O-] | 2.27 |
| CC(C)(C)N(NC(=O)c1ccccc1)C(=O)c1ccccc1 | 2.45 |

| Compound | logP |
| --- | --- |
| CC(C)(C)N(NC(=O)c1ccccc1)C(=O)c1ccc(Cl)cc1 | 3.42 |
| Cc1ccc(C(=O)N(NC(=O)c2ccccc2)C(C)(C)C)cc1C | 3.34 |
| CC(C)(C)N(NC(=O)c1ccccc1)C(=O)c1ccc(C(F)(F)F)cc1 | 3.77 |
| CC(C)(C)N(NC(=O)c1ccccc1)C(=O)c1cccc(C#N)c1 | 2.34 |
| COc1ccc(C(=O)N(NC(=O)c2ccccc2)C(C)(C)C)cc1 | 2.56 |
| CC(C)(C)N(NC(=O)c1ccccc1)C(=O)c1ccc(Cl)cc1Cl | 3.55 |
| CC(C)(C)N(NC(=O)c1ccccc1)C(=O)c1cc(Cl)ccc1Cl | 3.36 |
| CC(C)(C)N(NC(=O)c1ccccc1)C(=O)c1cccc(I)c1 | 3.72 |
| COc1ccc(C(=O)N(NC(=O)c2ccccc2)C(C)(C)C)cc1OC | 2.09 |
| CC(C)(C)N(NC(=O)c1ccccc1)C(=O)c1ccccc1F | 2.38 |
| Cc1ccccc1C(=O)N(NC(=O)c1ccccc1)C(C)(C)C | 2.75 |
| COc1ccccc1C(=O)N(NC(=O)c1ccccc1)C(C)(C)C | 2.04 |
| CC(C)(C)N(NC(=O)c1ccccc1)C(=O)c1cccc(F)c1 | 2.78 |
| Cc1cc(C)cc(C(=O)N(NC(=O)c2ccccc2)C(C)(C)C)c1 | 3.39 |
| CC(C)(C)N(NC(=O)c1ccccc1)C(=O)c1cccc(Br)c1 | 3.49 |
| CC(C)(C)N(NC(=O)c1ccccc1)C(=O)c1ccccc1I | 2.83 |
| Cc1ccc(C)c(C(=O)N(NC(=O)c2ccccc2)C(C)(C)C)c1 | 3.25 |
| CC(C)(C)N(NC(=O)c1ccccc1)C(=O)c1ccccc1C(F)(F)F | 2.85 |
| CC(C)(C)N(NC(=O)c1ccccc1)C(=O)c1ccc(Cl)c(Cl)c1 | 4.25 |
| CC(C)(C)N(NC(=O)c1ccccc1)C(=O)c1ccc(I)cc1 | 3.78 |
| CC(C)(C)N(NC(=O)c1ccccc1)C(=O)c1cccc(C(F)(F)F)c1 | 3.61 |
| CC(C)(C)N(NC(=O)c1ccccc1)C(=O)c1ccccc1Br | 2.69 |
